These results are taken from patent US11591323B2, “Muscarinic agonists as non-steroidal and non-opioid analgesics and methods of use thereof” (Barry University, priority 2019, dated 2023).

Common to all, as to type: cell-based
For one assay, the target named is T1, M2 muscarinic receptor (Homo sapiens, UniProt P08172).
T1 sequence (P08172 1-466): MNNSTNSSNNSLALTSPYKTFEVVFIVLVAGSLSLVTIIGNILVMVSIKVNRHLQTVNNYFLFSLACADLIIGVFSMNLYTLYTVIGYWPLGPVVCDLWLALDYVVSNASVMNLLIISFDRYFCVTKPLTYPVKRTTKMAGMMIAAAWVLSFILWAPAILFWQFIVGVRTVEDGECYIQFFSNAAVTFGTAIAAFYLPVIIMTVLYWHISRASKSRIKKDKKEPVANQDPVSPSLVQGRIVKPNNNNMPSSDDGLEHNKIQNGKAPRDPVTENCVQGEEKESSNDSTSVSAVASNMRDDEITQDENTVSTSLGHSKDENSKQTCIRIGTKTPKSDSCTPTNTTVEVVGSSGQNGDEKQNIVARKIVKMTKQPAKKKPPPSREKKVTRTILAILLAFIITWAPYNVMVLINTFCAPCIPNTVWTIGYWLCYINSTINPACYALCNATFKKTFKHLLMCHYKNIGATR
The experiment in a line: stimulation of cAMP, M2 CHO cells (M2Gs). More on the design: host or cells: CHO cells, stably transfected. Conditions: for Δlog(τ/KA): Table 8, to carbachol; for RAi: Table 8, relative to carbachol. The method, then: (§1) To determine level of cAMP, cells in suspension were pre-incubated for 1 h with 0.4 μM [^3H]adenine, washed, and incubated for 10 min in the presence of isobutylmethylxanthine and 10 μM forskolin. […] Incubation was ended by addition of 0.2 ml of 2.5 M HCl to the samples. Samples were applied to alumina columns (1.5 g of alumina per column), washed with 2 ml ammonium acetate (pH=7.0) and eluted from columns with 4 ml ammonium acetate and measured by liquid scintillation spectrometry. […] The incubation was stopped by addition of 0.5 ml of chloroform methanol HCl mixture (2:1:0.1). After separation of water and organic phases, 0.6 ml of water phase was applied to Dowex columns (1.5 g of Dowex per column), washed by 20 ml of 60 mM ammonium formate/5 mM sodium borate buffer and eluted from columns with 4 ml of 1M ammonium formate/0.1 formic acid buffer and measured by liquid scintillation spectrometry.
(§2) Measurements of the production of cAMP and inositol phosphates: Levels of second messengers cAMP and inositol phosphates were determined in radiochemical chromatography assays as described previously. To determine level of cAMP, cells in suspension were pre-incubated for 1 h with 0.4 μM [^3H]adenine, washed, and incubated for 10 min in the presence of isobutylmethylxanthine and 10 μM forskolin. […] Incubation was ended by addition of 0.2 ml of 2.5 M HCl to the samples. Samples were applied to alumina columns (1.5 g of alumina per column), washed with 2 ml ammonium acetate (pH=7.0) and eluted from columns with 4 ml ammonium acetate and measured by liquid scintillation spectrometry. […] For this purpose, new CHO cell lines stably expressing promiscuous G15 G-protein and M2 or M4 receptor were generated by transfection with pCMV/hygro vector and hygromycin selection. To determine the rate of formation of inositol phosphates IPX, suspended cells were pre-incubated with 0.1 μM [^3H]myo-inositol for 60 min, washed, and incubated with 10 mM LiCl for 15 min. […] The incubation was stopped by addition of 0.5 ml of chloroform methanol HCl mixture (2:1:0.1). After separation of water and organic phases, 0.6 ml of water phase was applied to Dowex columns (1.5 g of Dowex per column), washed by 20 ml of 60 mM ammonium formate/5 mM sodium borate buffer and eluted from columns with 4 ml of 1M ammonium formate/0.1 formic acid buffer and measured by liquid scintillation spectrometry.
(§3) For bi-phasic response, curves were inhibitory and stimulatory phase were fitted separately. Operational Model of Functional Agonism
(§4) [formula] where y is functional response at concentration of tested compound x, EMAX is maximal response of the system, KA is equilibrium dissociation constant and nH is slope factor. Eq. 5 was fitted to data from functional experiments. Eq. 5 was fitted to data by the two-step procedure described earlier. […] In the second step, Eq. 5 with EMAX fixed to the value determined in the first step was fitted to individual experimental data sets. Relative Intrinsic Activity

For another assay, the target named is T2, M5 muscarinic receptor (Homo sapiens, UniProt P08912).
T2 sequence (P08912 1-532): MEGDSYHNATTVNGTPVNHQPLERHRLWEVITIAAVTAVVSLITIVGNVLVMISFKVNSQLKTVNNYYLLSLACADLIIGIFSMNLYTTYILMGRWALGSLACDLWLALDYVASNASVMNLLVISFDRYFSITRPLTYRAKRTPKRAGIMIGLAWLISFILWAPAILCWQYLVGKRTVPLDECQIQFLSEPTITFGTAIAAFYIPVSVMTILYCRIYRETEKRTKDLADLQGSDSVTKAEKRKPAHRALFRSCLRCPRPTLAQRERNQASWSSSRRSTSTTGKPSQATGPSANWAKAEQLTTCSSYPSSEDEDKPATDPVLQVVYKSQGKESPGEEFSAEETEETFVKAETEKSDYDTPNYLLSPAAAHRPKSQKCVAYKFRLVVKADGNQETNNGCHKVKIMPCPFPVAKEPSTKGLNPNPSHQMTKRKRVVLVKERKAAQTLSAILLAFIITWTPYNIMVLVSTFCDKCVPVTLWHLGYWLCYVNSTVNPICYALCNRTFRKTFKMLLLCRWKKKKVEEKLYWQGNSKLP
Description: accumulation of IPX, M5 CHO cells transfected with G15 (M5Gq+G15). Further details: expressed in transfected cells; host or cells: CHO cells. Conditions: for E′MAX / τ / EC50: Table 8; for Δlog(τ/KA): Table 8, to carbachol; for Kd: Table 8, read-out: pKA (converted); for RAi: Table 8, relative to carbachol. Here is the method: as §1, §2, §3, §4

The next assay deals with M3 muscarinic receptor (Homo sapiens, UniProt P20309). Description: accumulation of IPX, M3 CHO cells transfected with G15 (M3Gq+G15). Further details: host or cells: CHO cells. The method, then:
as §1, §2, §3, §4

Where [1] appears, read: M3Gq + G15 (↑IPX), Table 8, relative to carbachol.
Where [2] appears, read: M3Gq + G15 (↑IPX), Table 8, to carbachol.
Where [3] appears, read: M3Gq + G15 (↑IPX), Table 8, read-out: pEC50 (converted).
Where [4] appears, read: M3Gq + G15 (↑IPX), Table 8, read-out: pKA (converted).

Each structure is given as a SMILES string. Read-outs that look alike come from different tables or passages of the source.

Sequence of M3 muscarinic receptor (P20309 whole entry): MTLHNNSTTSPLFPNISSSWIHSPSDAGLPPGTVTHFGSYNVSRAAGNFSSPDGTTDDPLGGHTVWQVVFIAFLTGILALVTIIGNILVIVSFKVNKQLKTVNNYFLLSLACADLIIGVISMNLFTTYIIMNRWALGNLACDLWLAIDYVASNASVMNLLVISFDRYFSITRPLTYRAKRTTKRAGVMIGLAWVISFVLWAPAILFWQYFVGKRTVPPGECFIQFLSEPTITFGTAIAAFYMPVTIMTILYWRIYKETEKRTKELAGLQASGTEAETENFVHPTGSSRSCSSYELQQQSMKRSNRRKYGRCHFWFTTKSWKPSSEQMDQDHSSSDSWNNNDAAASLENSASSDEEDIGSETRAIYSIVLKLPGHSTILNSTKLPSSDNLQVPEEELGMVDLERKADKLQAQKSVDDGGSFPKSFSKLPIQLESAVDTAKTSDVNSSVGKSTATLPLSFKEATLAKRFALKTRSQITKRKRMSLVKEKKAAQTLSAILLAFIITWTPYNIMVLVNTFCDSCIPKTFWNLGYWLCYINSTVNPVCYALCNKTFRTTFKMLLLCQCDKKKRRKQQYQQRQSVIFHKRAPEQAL

For `C[N+](C)(C)CCOC(N)=O` [carbachol, reference compound], the “E′MAX” value at M2 muscarinic receptor (M2Gs (↑cAMP), Table 8) was 3.6 ± 0.2 fold increase. Moreover, the “Δlog(τ/KA)” value at M2 muscarinic receptor (M2Gs (↑cAMP)) is on record as 0. In addition, on M5 muscarinic receptor, the “E′MAX” value was found to be 17 ± 2 fold over basal, the τ came to 4.0 ± 0.4 and the “Δlog(τ/KA)” value came out at 0.
Consider `C[N+]1(Cc2cccs2)CC=CCC1.[I-]` (centres unmarked) [Compound 7A, 1-methyl-1-[(thiophen-2-yl)methyl]-1,2,3,6-tetrahydropyridin-1-ium iodide], for which the “E′MAX” value on M3 muscarinic receptor (M3Gq + G15 (↑IPX), Table 8) is 3.0 ± 0.3 fold over basal; on M5 muscarinic receptor it was 1.28 ± 0.05 fold over basal. Further, the τ is recorded as 0.08 ± 0.01 on M3 muscarinic receptor (M3Gq + G15 (↑IPX), Table 8) and 0.014 ± 0.003 at M5 muscarinic receptor. The results for the RAi on M3 muscarinic receptor (setting [1]), on M2 muscarinic receptor (M2Gs (↑cAMP)) and at M5 muscarinic receptor were 0.011 ± 0.001, 0 and 0.0007 ± 0.0002, respectively. In addition, the “Δlog(τ/KA)” value at M3 muscarinic receptor (setting [2]) is 1.94 ± 0.20; on M5 muscarinic receptor, 3.17 ± 0.88. Also, the EC50 at M3 muscarinic receptor (setting [3]) is 3.16 µM; at M5 muscarinic receptor, 7.94 µM. Also, the results for the Kd on M3 muscarinic receptor (setting [4]) and at M5 muscarinic receptor were 3.16 µM and 2 µM, respectively.
For the compound `O=C1CCCN1CC#CCN1CCCC1` [oxotremorine, reference compound], at M3 muscarinic receptor, the EC50 was 0.1 µM, the “E′MAX” value is 22 ± 2 fold over basal, the Kd is 0.398 µM and the RAi is 4.14 ± 0.38. Further, at M3 muscarinic receptor, the “Δlog(τ/KA)” value is −0.62 ± 0.06 and the τ was 2.9 ± 0.3. At M2 muscarinic receptor, this compound showed an EC50 of 1.15 µM and a Kd of 3.98 µM. For the same compound, at M2 muscarinic receptor (M2Gs (↑cAMP), Table 8), the “E′MAX” value was 3.1 ± 0.2 fold increase and the τ is 2.3 ± 0.2. On M2 muscarinic receptor (M2Gs (↑cAMP)), the RAi was 2.65 ± 0.018 and the “Δlog(τ/KA)” value is on record as −0.42 ± 0.04. Besides, on M5 muscarinic receptor, the “E′MAX” value is 16 ± 1 fold over basal, the τ is 2.6 ± 0.3, the RAi came out at 4.12 ± 0.26 and the “Δlog(τ/KA)” value is given as −0.62 ± 0.07.
Regarding `C1=CCN(Cc2cccs2)CC1.Cl` [Compound 6A, 1-[(thiophen-2-yl)methyl]-1,2,3,6-tetrahydropyridin-1-ium chloride], the “E′MAX” value is on record as 2.5 ± 0.2 fold over basal on M3 muscarinic receptor (M3Gq + G15 (↑IPX), Table 8) and 1.19 ± 0.04 fold over basal on M5 muscarinic receptor. The τ on M3 muscarinic receptor (M3Gq + G15 (↑IPX), Table 8) was determined as 0.06 ± 0.01; on M5 muscarinic receptor, 0.009 ± 0.003. Besides, the RAi on M3 muscarinic receptor (setting [1]) was 0.0058 ± 0.0005; on M2 muscarinic receptor (M2Gs (↑cAMP)), 0; on M5 muscarinic receptor, 0.0025 ± 0.0008. For the same compound, the “Δlog(τ/KA)” value at M3 muscarinic receptor (setting [2]) stood at 2.23 ± 0.23; on M5 muscarinic receptor, 2.60 ± 0.82. The EC50 is 5.01 µM on M3 muscarinic receptor (setting [3]) and 1.58 µM on M5 muscarinic receptor. For the same compound, the Kd at M3 muscarinic receptor (setting [4]) was 5.01 µM; at M5 muscarinic receptor it was 1.58 µM.
